What was measured:
Format in all cases: in vivo, dog
[1] = test system: interferon mediated antiviral response; test: GeneGo pathway analysis of differentially expressed genes in dogs fed lipoic acid; details: dogs fed lipoic acid for 30 days; 150 ppm in food
Excerpt: (§1) Twenty dogs were fed for 30 days. Ten were fed an AAFCO level control food and 10 other dogs were fed the AAFCO level control food containing 150 ppm alpha-lipoic acid. At the end of the end of the 30 days whole blood samples were collected from each dog in Paxgene tubes.
(§2) Total RNAs were isolated from whole blood samples using the PAXgene RNA isolation kit. All measurements were done with the canine 2 Affymetrix genechips. For statistical analysis, all measurements were normalized with RMA. All analysis was preformed using Partek. An ANOVA t-test was performed for genes that are differentially expressed between the control and test foods. (at least a 20% change in expression with a pvalue<0.05)
(§3) Differentially expressed genes were analyzed with the GeneGo pathway analysis software.

[2] = test system: IFNGR2; test: Whole blood gene expression (canine 2 Affymetrix genechip) in dogs fed lipoic acid food for 30 days; details: dogs fed control food containing 150 ppm alpha-lipoic acid for 30 days vs control food; whole blood RNA
Excerpt: as §1, §2, §3

[3] = test system: RNASEL; test: as above; details: dogs fed control food containing 150 ppm alpha-lipoic acid for 30 days vs control food; whole blood RNA
Excerpt: as §1, §2, §3

[4] = test system: IFR9; test: as above; details: dogs fed control food containing 150 ppm alpha-lipoic acid for 30 days vs control food; whole blood RNA
Excerpt: as §1, §2, §3

[5] = test system: EIF2AK2; test: as above; details: dogs fed control food containing 150 ppm alpha-lipoic acid for 30 days vs control food
Excerpt: as §1, §2, §3

[6] = test system: CREBBP; test: as above; details: dogs fed control food containing 150 ppm alpha-lipoic acid for 30 days vs control food; whole blood RNA
Excerpt: as §1, §2, §3

[7] = test system: JAK2; test: as above; details: dogs fed control food containing 150 ppm alpha-lipoic acid for 30 days vs control food; whole blood RNA
Excerpt: as §1, §2, §3

[8] = test system: IFNAR2; test: as above; details: dogs fed control food containing 150 ppm alpha-lipoic acid for 30 days vs control food; whole blood RNA
Excerpt: as §1, §2, §3

`O=C(O)CCCCC1CCSS1` (stereo not drawn) [lipoic acid, alpha-lipoic acid] was tested, and the “interferon mediated antiviral response (pathway analysis of differentially expressed genes)” value [1] was “exhibited an interferon mediated antiviral response”, the “Fold Up-regulated, IFNGR2 (interferon-gamma receptor beta chain precursor)” value [2] was 1.2 fold and the “Fold Up-regulated, RNASEL (2-5A-dependent ribonuclease)” value [3] was 1.5 fold. The “Fold Up-regulated, IFR9 (interferon regulatory factor 9)” value [4] was 1.3 fold, the “Fold Up-regulated, EIF2AK2 (Interferon-induced double stranded RNA-activated protein)” value [5] was 1.4 fold and the “Fold Up-regulated, CREBBP (CREB-binding protein)” value [6] was 1.2 fold. For the same compound, the “Fold Up-regulated, JAK2 (Tyrosine protein kinase JAK2)” value [7] was 1.4 fold and the “Fold Up-regulated, IFNAR2 (interferon-alpha/beta receptor beta chain precursor)” value [8] was 1.3 fold.
